The results in this text go back to ChEMBL document CHEMBL1201862, “PubChem BioAssay data set” (2004).

Test systems include OVCAR-8; NCI-H522; NCI/ADR-RES; SNB-19; OVCAR-5; RPMI-8226; SK-MEL-5; IGROV-1; T47D; 786-0; UACC-62; CAKI-1; LOX IMVI; HCT-15; TK-10; CCRF-CEM; MDA-MB-435; SN12C; COLO 205; SF-539.
Common to all, as to assay: NCI anticancer screen, dose series, 48 h

Molecules are shown by their SMILES.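 Five compound concentrations were applied to cells in 96-well plates for 48 hours; endpoints were derived by simple linear interpolation of the resulting dose-response curve. Here, GI50 denotes the concentration required for 50% inhibition of growth.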 Active and inactive are the calls of the source. No stated cut-off is given here; in the data, active = GI50 up to about 1.1 µM and inactive = higher.

As to `O=C(CC(O)(C(F)(F)F)C(F)(F)F)C(CCCl)C(O)(C(F)(F)F)C(F)(F)F` (centres undefined), the GI50 in the experiment with OVCAR-8 is 27.9 µM (inactive); in the experiment with NCI-H522, 34.4 µM (inactive); in the experiment on NCI/ADR-RES it was 9.89 µM (inactive); in the experiment on SNB-19, 34.5 µM (inactive); in the experiment with OVCAR-5 it was 44.2 µM (inactive); with RPMI-8226 it was 16.7 µM (inactive). Also, the GI50 in the experiment on SK-MEL-5 was 23.2 µM (inactive); with IGROV-1, 52.5 µM (inactive); in the experiment on T47D, 26 µM (inactive); with 786-0 it was 32.7 µM (inactive); in the experiment on UACC-62, 53.2 µM (inactive); with CAKI-1, 31.5 µM (inactive). Also, the GI50 was 55.7 µM (inactive) in the experiment with LOX IMVI; 34.3 µM with HCT-15; 55.7 µM (inactive) in the experiment on TK-10; 39.9 µM (inactive) in the experiment on CCRF-CEM; 62.7 µM (inactive) in the experiment on MDA-MB-435; 18.9 µM (inactive) in the experiment with SN12C. For the same compound, the GI50 in the experiment with COLO 205 is 13.8 µM (inactive); in the experiment with SF-539, 54.8 µM (inactive).

On to `N#Cc1c2c(c(Nc3ccc(F)cc3)n3c1nc1ccccc13)CCC2`, for which the GI50 in the experiment on OVCAR-8 was 2.36 µM (inactive); with NCI-H522 it was 2.2 µM (inactive); in the experiment on NCI/ADR-RES it was 5.27 µM (inactive); with SNB-19 it was 8.61 µM (inactive); with OVCAR-5, 5.02 µM (inactive); in the experiment with RPMI-8226 it was 2.28 µM (inactive). Further, the GI50 is 3.54 µM (inactive) in the experiment with SK-MEL-5; 3.52 µM (inactive) with IGROV-1; 7.8 µM (inactive) with T47D; 1.78 µM (inactive) with 786-0; 10.9 µM (inactive) with UACC-62; 1.68 µM (inactive) with CAKI-1. Also, the GI50 in the experiment with LOX IMVI is 2.13 µM (inactive); with HCT-15, 3.99 µM; with TK-10, 3.7 µM (inactive); in the experiment with CCRF-CEM, 0.791 µM (active); in the experiment with MDA-MB-435, 3.25 µM (inactive); in the experiment with SN12C, 2.1 µM (inactive). Further, the GI50 in the experiment on COLO 205 is 6.31 µM (inactive); in the experiment on SF-539, 3.46 µM (inactive).

Regarding `COc1ccc(/C=C/C(=O)Oc2cc(O)cc(O)c2)cc1`, the GI50 in the experiment with OVCAR-8 was 28.2 µM (inactive); with NCI-H522 it was 24.4 µM (inactive); in the experiment on NCI/ADR-RES it was 34.4 µM (inactive); with SNB-19, > 100 µM (inactive); with OVCAR-5 it was > 100 µM (inactive); in the experiment with RPMI-8226 it was 16.3 µM (inactive). The GI50 in the experiment on SK-MEL-5 is 52.8 µM (inactive); in the experiment with IGROV-1 it was 16.5 µM (inactive); in the experiment with T47D it was 43.5 µM (inactive); with 786-0, 56.9 µM (inactive); in the experiment on UACC-62, > 100 µM (inactive); with CAKI-1, 17.2 µM (inactive). Further, the GI50 in the experiment on LOX IMVI was 20.1 µM (inactive); in the experiment with HCT-15 it was 16.9 µM; with TK-10 it was > 100 µM (inactive); with CCRF-CEM, 11.5 µM (inactive); in the experiment on MDA-MB-435 it was 61.9 µM (inactive); with SN12C, 36.4 µM (inactive). Moreover, the GI50 in the experiment with COLO 205 was 57.9 µM (inactive); in the experiment on SF-539, 95.1 µM (inactive).

As to `O=[N+]([O-])c1ccc2c(c1)C1=C(CO2)Cc2ccccc2O1`, the GI50 in the experiment with OVCAR-8 was 33.5 µM (inactive); in the experiment with NCI-H522, 22.4 µM (inactive); in the experiment with NCI/ADR-RES it was 30.3 µM (inactive); with OVCAR-5, 24.5 µM (inactive); in the experiment on RPMI-8226, 36.6 µM (inactive); in the experiment on SK-MEL-5, 15.8 µM (inactive). The GI50 in the experiment with IGROV-1 was 19.2 µM (inactive); with T47D it was 10.9 µM (inactive); in the experiment with 786-0 it was 17.4 µM (inactive); in the experiment with UACC-62 it was 19.4 µM (inactive); in the experiment with CAKI-1, 17.6 µM (inactive); with LOX IMVI, 14.8 µM (inactive). For the same compound, the GI50 was 14.3 µM in the experiment on HCT-15; 26.5 µM (inactive) in the experiment with TK-10; 23.6 µM (inactive) in the experiment with CCRF-CEM; 25.6 µM (inactive) with MDA-MB-435; 25.9 µM (inactive) in the experiment with SN12C; 16.8 µM (inactive) in the experiment on COLO 205. In the experiment with SF-539, the GI50 is 23.9 µM (inactive).

As to `CC(=O)NC1C(Sc2ncn(C3OC(CO)C(O)C(O)C3NC(C)=O)n2)OC(CO)C(O)C1O` (centres undefined), the GI50 in the experiment on OVCAR-8, in the experiment with NCI-H522, with NCI/ADR-RES, with SNB-19, with OVCAR-5 and in the experiment on RPMI-8226 was > 100 µM (inactive) in each case. The GI50 in the experiment with SK-MEL-5, with IGROV-1, in the experiment on T47D, in the experiment with 786-0, in the experiment with UACC-62 and in the experiment with CAKI-1 was > 100 µM (inactive) in each case. Besides, the GI50 with LOX IMVI is > 100 µM (inactive); with HCT-15 it was over 100 µM; in the experiment with TK-10, > 100 µM (inactive); in the experiment on CCRF-CEM, 29 µM (inactive); in the experiment on MDA-MB-435 it was > 100 µM (inactive); in the experiment with SN12C it was > 100 µM (inactive). In addition, the GI50 in the experiment with COLO 205 and with SF-539 was > 100 µM (inactive) throughout.

In the case of `[O-][S+](Nc1ccccc1)c1ccc(Cl)cc1` (centres undefined), the GI50 in the experiment with OVCAR-8 is > 100 µM (inactive); in the experiment with NCI-H522, 73.3 µM (inactive); in the experiment on NCI/ADR-RES it was 64.9 µM (inactive); in the experiment on SNB-19, > 100 µM (inactive); in the experiment on OVCAR-5, > 100 µM (inactive); in the experiment on RPMI-8226, > 100 µM (inactive). Moreover, the GI50 is 35.9 µM (inactive) with SK-MEL-5; 24.7 µM (inactive) in the experiment with IGROV-1; 50.1 µM (inactive) in the experiment on T47D; > 100 µM (inactive) in the experiment on 786-0; 14.9 µM (inactive) in the experiment on UACC-62; > 100 µM (inactive) in the experiment on CAKI-1. The GI50 was > 100 µM (inactive) in the experiment on LOX IMVI; 75.2 µM with HCT-15; > 100 µM (inactive) in the experiment on TK-10; 89.9 µM (inactive) in the experiment with CCRF-CEM; 31.4 µM (inactive) in the experiment with MDA-MB-435; > 100 µM (inactive) with SN12C. Moreover, the results for the GI50 with COLO 205 and with SF-539 were > 100 µM (inactive) and 18.9 µM (inactive), respectively.

On to `NNC(=O)c1cc([N+](=O)[O-])ccc1NC(=O)C12CC3CC(CC(C3)C1)C2`, for which the GI50 is 14.9 µM (inactive) in the experiment with OVCAR-8; 3 µM (inactive) in the experiment with NCI-H522; 15.9 µM (inactive) in the experiment with NCI/ADR-RES; 2.98 µM (inactive) in the experiment on SNB-19; 13.4 µM (inactive) with OVCAR-5; 12.2 µM (inactive) with RPMI-8226. Further, the GI50 with SK-MEL-5 is 19.2 µM (inactive); in the experiment with IGROV-1, 1.9 µM (inactive); in the experiment on T47D, 10 µM (inactive); with 786-0, 11.7 µM (inactive); with UACC-62, 10 µM (inactive); in the experiment with CAKI-1 it was 5.7 µM (inactive). In addition, the GI50 was 2.93 µM (inactive) with LOX IMVI; 0.635 µM in the experiment with HCT-15; 12.2 µM (inactive) with TK-10; 2.27 µM (inactive) in the experiment with CCRF-CEM; 14.3 µM (inactive) in the experiment on MDA-MB-435; 8.63 µM (inactive) in the experiment with SN12C. In addition, the figures for the GI50 in the experiment on COLO 205 and in the experiment on SF-539 were 6.04 µM (inactive) and 13.5 µM (inactive), respectively.

With `CC1(C)[C@@H]2CC[C@@]1(C)CN(CCC[N+](C)(C)C)C2`, the GI50 in the experiment with OVCAR-8, in the experiment with NCI-H522, in the experiment on NCI/ADR-RES, with SNB-19, in the experiment on OVCAR-5 and in the experiment on RPMI-8226 was > 100 µM (inactive) throughout. In addition, the GI50 with SK-MEL-5, with IGROV-1, in the experiment with T47D, in the experiment on 786-0, with UACC-62 and in the experiment with CAKI-1 was > 100 µM (inactive) throughout. The GI50 is > 100 µM (inactive) in the experiment with LOX IMVI; over 100 µM with HCT-15; > 100 µM (inactive) in the experiment on TK-10; > 100 µM (inactive) with CCRF-CEM; > 100 µM (inactive) with MDA-MB-435; > 100 µM (inactive) in the experiment with SN12C. In addition, the GI50 in the experiment with COLO 205 and in the experiment on SF-539 was > 100 µM (inactive) in each case.

On to `O=C(O)C1C(=O)Oc2c(cccc2[N+](=O)[O-])C1O` (centres undefined), for which the GI50 in the experiment on OVCAR-8, in the experiment with NCI-H522, with NCI/ADR-RES, in the experiment with SNB-19, with OVCAR-5 and in the experiment on RPMI-8226 was > 100 µM (inactive) in each case. Further, the GI50 in the experiment on SK-MEL-5, in the experiment with IGROV-1, in the experiment on T47D, in the experiment with 786-0, in the experiment on UACC-62 and in the experiment on CAKI-1 was > 100 µM (inactive) each time. Besides, the GI50 in the experiment on LOX IMVI was > 100 µM (inactive); in the experiment on HCT-15, over 100 µM; with TK-10 it was > 100 µM (inactive); with CCRF-CEM it was > 100 µM (inactive); in the experiment with MDA-MB-435 it was > 100 µM (inactive); with SN12C, > 100 µM (inactive). The GI50 with COLO 205 and with SF-539 was > 100 µM (inactive) in each case.

Take `O=C1/C(=C/c2ccc(O)c(O)c2)CC/C1=C\c1ccc(O)c(O)c1`: the GI50 is 10 µM (inactive) in the experiment on OVCAR-8; 2.01 µM (inactive) with NCI-H522; 8.24 µM (inactive) with NCI/ADR-RES; 7.11 µM (inactive) in the experiment on SNB-19; > 42.2 µM (inactive) in the experiment with OVCAR-5; 2.23 µM (inactive) with RPMI-8226. Besides, the GI50 in the experiment on SK-MEL-5 is 4.03 µM (inactive); in the experiment on IGROV-1 it was 3.74 µM (inactive); in the experiment with T47D, 4.66 µM (inactive); with 786-0, 3.83 µM (inactive); with UACC-62, 3.79 µM (inactive); in the experiment on CAKI-1, 8.17 µM (inactive). Besides, the GI50 with LOX IMVI was 6.67 µM (inactive); with HCT-15, 7.16 µM; in the experiment on TK-10 it was > 25.9 µM (inactive); in the experiment with CCRF-CEM, 1.65 µM (inactive); in the experiment with MDA-MB-435, 4.68 µM (inactive); in the experiment with SN12C, 7.29 µM (inactive). The GI50 with COLO 205 is 16.2 µM (inactive); in the experiment with SF-539, 2.49 µM (inactive).
